Experimental data published in ChEMBL document CHEMBL2073943, “Effect of the flavonoids biochanin A and silymarin on the P-glycoprotein-mediated transport of digoxin and vinblastine in human intestinal Caco-2 cells” (Pharm Res, 2003).

Experiments:
Format in all cases: functional, cell-based
[1] = target: T1, ATP-dependent translocase ABCB1 (Homo sapiens, UniProt P08183); test: TP_TRANSPORTER: increase in […] intracellular accumulation (VBL: 27nM, biochanin A: 150 uM) in Caco-2 cells; conditions: caco-2, 150 µM
[2] = target: T1, ATP-dependent translocase ABCB1; test: TP_TRANSPORTER: increase in digoxin intracellular accumulation (digoxin: 11nM, biochanin A: 150 uM) in Caco-2 cells; conditions: caco-2, 150 µM
[3] = target: T1, ATP-dependent translocase ABCB1; test: TP_TRANSPORTER: increase in digoxin intracellular accumulation (digoxin: 11nM, silymarin: 100 uM) in Caco-2 cells; conditions: caco-2, 100 µM
[4] = target: T1, ATP-dependent translocase ABCB1; test: TP_TRANSPORTER: increase in […] intracellular accumulation (VBL: 27nM, silymarin: 100 uM) in Caco-2 cells; conditions: caco-2, 100 µM

T1 sequence (P08183 whole entry): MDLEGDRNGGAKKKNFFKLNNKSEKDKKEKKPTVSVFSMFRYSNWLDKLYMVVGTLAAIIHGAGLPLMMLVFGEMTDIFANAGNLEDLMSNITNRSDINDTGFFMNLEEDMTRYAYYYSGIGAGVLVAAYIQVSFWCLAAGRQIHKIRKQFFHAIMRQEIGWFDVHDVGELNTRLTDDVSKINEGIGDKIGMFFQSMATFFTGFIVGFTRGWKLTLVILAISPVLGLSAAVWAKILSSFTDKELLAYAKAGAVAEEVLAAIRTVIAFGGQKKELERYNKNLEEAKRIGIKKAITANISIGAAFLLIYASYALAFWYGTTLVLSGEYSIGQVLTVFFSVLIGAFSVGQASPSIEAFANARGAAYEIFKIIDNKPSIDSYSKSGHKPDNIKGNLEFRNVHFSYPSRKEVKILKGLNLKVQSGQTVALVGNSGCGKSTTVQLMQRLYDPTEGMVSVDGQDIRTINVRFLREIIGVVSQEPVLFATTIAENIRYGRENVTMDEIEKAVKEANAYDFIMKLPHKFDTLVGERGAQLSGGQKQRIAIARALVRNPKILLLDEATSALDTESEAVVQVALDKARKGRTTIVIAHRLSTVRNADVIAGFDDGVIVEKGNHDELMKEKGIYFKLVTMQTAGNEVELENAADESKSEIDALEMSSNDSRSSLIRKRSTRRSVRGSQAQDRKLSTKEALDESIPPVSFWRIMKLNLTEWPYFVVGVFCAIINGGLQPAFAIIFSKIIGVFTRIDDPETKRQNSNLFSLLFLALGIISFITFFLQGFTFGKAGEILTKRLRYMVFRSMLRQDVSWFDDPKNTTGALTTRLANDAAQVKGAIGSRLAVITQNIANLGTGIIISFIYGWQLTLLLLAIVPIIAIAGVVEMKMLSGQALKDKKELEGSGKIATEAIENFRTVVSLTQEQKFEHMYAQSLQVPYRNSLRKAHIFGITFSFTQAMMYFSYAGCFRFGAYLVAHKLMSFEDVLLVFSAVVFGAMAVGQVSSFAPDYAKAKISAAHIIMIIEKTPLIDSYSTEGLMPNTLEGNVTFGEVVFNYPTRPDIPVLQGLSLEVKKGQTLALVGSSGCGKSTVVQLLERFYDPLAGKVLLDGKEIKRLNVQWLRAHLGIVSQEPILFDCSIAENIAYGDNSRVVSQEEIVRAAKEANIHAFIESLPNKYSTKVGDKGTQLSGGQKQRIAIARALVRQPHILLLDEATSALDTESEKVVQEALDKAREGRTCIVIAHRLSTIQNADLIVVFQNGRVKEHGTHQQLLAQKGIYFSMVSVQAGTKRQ

Row | Activity [1] | Activity [2] | Activity [3] | Activity [4] | Molecule
1 | inhibitor [+] | inhibitor [+] |  |  | COc1ccc(-c2coc3cc(O)cc(O)c3c2=O)cc1 [BIOCHANIN]
2 |  |  | inhibitor [+] | inhibitor [+] | SILYMARIN
